Experimental data reported in patent US5523315A, “N-(hydroxyethyl)butanediamide derivatives” (Bio-Mega/Boehringer Ingelheim Research Inc., priority 1993, dated 1996).

Each molecule was assayed against T1, human renin (Homo sapiens, UniProt P00797) (assay: plasma renin assay (inhibition of human renin; angiotensin I generated, measured by radioimmunoassay)). Settings: human plasma pool, pH 6.0, 2 h incubation at 37°.
T1 construct: A human plasma pool is used as the source of both the substrate (angiotensinogen) and the enzyme (renin); from tissue; host or cells: pooled human plasma
T1 sequence (P00797 67-406): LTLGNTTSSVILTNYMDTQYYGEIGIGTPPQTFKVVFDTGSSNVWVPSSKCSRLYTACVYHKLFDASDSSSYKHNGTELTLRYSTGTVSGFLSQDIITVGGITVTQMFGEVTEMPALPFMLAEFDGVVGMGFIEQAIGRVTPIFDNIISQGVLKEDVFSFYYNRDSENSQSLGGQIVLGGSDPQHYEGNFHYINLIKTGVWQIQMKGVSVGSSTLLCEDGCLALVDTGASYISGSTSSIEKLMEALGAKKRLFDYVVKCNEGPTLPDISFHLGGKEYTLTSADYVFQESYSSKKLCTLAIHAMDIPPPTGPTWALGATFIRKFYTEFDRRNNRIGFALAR
Type: biochemical
Summary of the method: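 Pooled human plasma supplies both renin and angiotensinogen; inhibitor in MES/1% HSA buffer (1% DMSO final) incubated 2 h at 37° at pH 6.0. Angiotensin I generated quantified by radioimmunoassay, inhibition relative to no-inhibitor control, IC50 by nonlinear regression.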

IC50 | Compound
5 nM | CC(C)C[C@H](O)[C@H](O)[C@H](CC1CCCCC1)NC(=O)[C@@H](CC(=O)N(CC(=O)C(C)C)CC1CCCCC1)Cc1csc(N)n1 [Compound 63, N^4-(cyclohexylmethyl)-N^4-(3-methyl-2-oxobutyl)-N^1-[1(S)-(cyclohexylmethyl)-2(R),3(S)-dihydroxy-5-methylhexyl]-2(R)-[(2-amino-4-thiazolyl)methyl]butanediamide]
16 nM | CC(C)C[C@H](O)[C@H](O)[C@H](CC1CCCCC1)NC(=O)[C@@H](CC(=O)N(CC(=O)N(C)C)CC1(O)CCCCC1)CC1CC1 [Compound 23, N^4-[(1-hydroxycyclohexyl)methyl]-N^4-[2-(dimethylamino)-2-oxoethyl]-N^1-[1(S)-(cyclohexylmethyl)-2(R),3(S)-dihydroxy-5-methylhexyl]-2(R)-(cyclopropylmethyl)butanediamide]
33 nM | CC(C)C[C@H](O)[C@H](O)[C@H](CC1CCCCC1)NC(=O)[C@@H](CC(=O)N(CC(=O)N(C)C)CC1(O)CCCCC1)Cc1cccnc1 [Compound 52, N^4-[(1-hydroxycyclohexyl)methyl]-N^4-[2-(dimethylamino)-2-oxoethyl]-N^1-[1(S)-(cyclohexylmethyl)-2(R),3(S)-dihydroxy-5-methylhexyl]-2(R)-(3-pyridinylmethyl)butanediamide]
53 nM | CC(C)C[C@H](O)[C@H](O)[C@H](CC1CCCCC1)NC(=O)[C@@H](CC(=O)N(Cc1ccccc1)CC1(O)CCCCC1)Cc1c[nH]cn1 [Compound 28]
36 nM | CC(C)C[C@H](O)[C@H](O)[C@H](CC1CCCCC1)NC(=O)[C@@H](CC(=O)N(Cc1ccccn1)CC1(O)CCCCC1)CC1CC1 [Compound 4, N^4-[(1-hydroxycyclohexyl)methyl]-N^4-(2-pyridinylmethyl)-N^1-[1(S)-(cyclohexylmethyl)-2(R),3(S)-dihydroxy-5-methylhexyl]-2(R)-(cyclopropylmethyl)butanediamide]
7.1 nM | CC(C)C[C@H](O)[C@H](O)[C@H](CC1CCCCC1)NC(=O)[C@@H](CC(=O)N(CC1CCCCC1)CC(C)(C)O)Cc1cscn1 [Compound 36, N^4-(cyclohexylmethyl)-N^4-(2-hydroxy-2-methylpropyl)-N^1-[1(S)-(cyclohexylmethyl)-2(R),3(S)-dihydroxy-5-methylhexyl]-2(R)-(4-thiazolylmethyl)butanediamide]
9 nM | CC(C)C[C@H](O)[C@H](O)[C@H](CC1CCCCC1)NC(=O)[C@@H](CC(=O)N(CC1CCCCC1)CC(C)(C)O)Cc1csc(N)n1 [Compound 41, N^4-(cyclohexylmethyl)-N^4-(2-hydroxy-2-methylpropyl)-N^1-[1(S)-(cyclohexylmethyl)-2(R),3(S)-dihydroxy-5-methylhexyl]-2(R)-[(2-amino-4-thiazolyl)methyl]butanediamide]
115 nM | CC(C)C[C@H](O)[C@H](O)[C@H](CC1CCCCC1)NC(=O)[C@@H](CC(=O)NC[C@H](O)C1CCCCC1)CC1CC1 [Compound 20 (R), N^4-(R)-(2-cyclohexyl-2-hydroxyethyl)-N^1-[1(S)-(cyclohexylmethyl)-2(R),3(S)-dihydroxy-5-methylhexyl]-2(R)-(cyclopropylmethyl)butanediamide]
9 nM | CC(C)C[C@H](O)[C@H](O)[C@H](CC1CCCCC1)NC(=O)[C@@H](CC(=O)N(CC(=O)C(C)C)CC1CCCCC1)Cc1cscn1 [Compound 61, N^4-(cyclohexylmethyl)-N^4-(3-methyl-2-oxobutyl)-N^1-[1(S)-(cyclohexylmethyl)-2(R),3(S)-dihydroxy-5-methylhexyl]-2(R)-(4-thiazolylmethyl)butanediamide]
37 nM | CC(C)C[C@H](O)[C@H](O)[C@H](CC1CCCCC1)NC(=O)[C@@H](CC(=O)N[C@@H](CO)CC1CCCCC1)Cc1cscn1 [Compound 45]
